By melting point is commonly meant the temperature of the solid-liquid transition. Regarding `C#CCOc1ccc2nc(C(=O)c3cccc(Br)c3)nc(-c3ccc(C(C)C)cc3)c2c1` [Example 12, (3-Bromo-phenyl)-[4-(4-isopropyl-phenyl)-6-propargyloxy-quinazolin-2-yl]-methanone], the melting point amounted to 132 °C.

Take `C#CCOc1ccc2nc(C(=O)c3cccc(F)c3)nc(-c3ccc(C(C)(C)C)cc3)c2c1` [Example 11, (3-Fluoro-phenyl)-[4-(4-tert.butyl-phenyl)-6-propargyloxy-quinazolin-2-yl]-methanone]: the melting point was in the range of 156 to 158 °C.

`C#CCOc1ccc2nc(C(=O)c3ccc(Br)cc3)nc(-c3ccc(C(C)C)cc3)c2c1` [Example 13, (4-Bromo-phenyl)-[4-(4-isopropyl-phenyl)-6-propargyloxy-quinazolin-2-yl]-methanone] displayed a melting point of 97 to 100 °C.

Regarding `C#CCOc1ccc2nc(C(=O)c3sccc3C)nc(-c3ccc(C(C)C)cc3)c2c1` [Example 36], the melting point was in the range of 130 to 132 °C.

`C#CCOc1ccc2nc(C(=O)c3ccc(F)cc3)nc(-c3ccc(C(C)C)cc3)c2c1` [Example 6, (4-Fluoro-phenyl)-[4-(4-isopropyl-phenyl)-6-propargyloxy-quinazolin-2-yl]-methanone] came in with a melting point of 124 to 126 °C.

`C#CCOc1ccc2nc(C(=O)c3ccc(C)cc3)nc(-c3ccc(C(C)C)cc3)c2c1` [Example 14, (4-Methyl-phenyl)-[4-(4-isopropyl-phenyl)-6-propargyloxy-quinazolin-2-yl]-methanone] gave a melting point of 130 to 132 °C.

`C#CCOc1ccc2nc(C(=O)c3ccc(C(=O)OC)cc3)nc(-c3ccc(C(C)C)cc3)c2c1` [Example 22, 4-[4-(4-Isopropyl-phenyl)-6-propargyloxy-quinazoline-2-carbonyl]-benzoic acid methyl ester]: the melting point fell in the range of 108 to 110 °C.

`C#CCOc1ccc2nc(C(=O)c3ccc(C(C)(C)C)cc3)nc(-c3ccc(C(C)C)cc3)c2c1` [Example 1, (4-tert-Butyl-phenyl)-[4-(4-isopropyl-phenyl)-6-propargyloxy-quinazolin-2-yl]-methanone]: the melting point fell in the range of 166 to 168 °C.

In turn, `C#CCOc1ccc2nc(C(=O)c3ccc(CC)cc3)nc(-c3ccc(C(C)C)cc3)c2c1` [Example 16, (4-Ethyl-phenyl)-[4-(4-isopropyl-phenyl)-6-propargyloxy-quinazolin-2-yl]-methanone] had a melting point of 108 to 111 °C.

The compound `C#CCOc1ccc2nc(C(=O)c3cccc(Cl)c3)nc(-c3ccc(C(C)C)cc3)c2c1` [Example 8, (3-Chloro-phenyl)-[4-(4-isopropyl-phenyl)-6-propargyloxy-quinazolin-2-yl]-methanone] displayed a melting point of 128 to 130 °C.

In turn, `C#CCOc1ccc2nc(C(=O)c3ccc(N(C)C)cc3)nc(-c3ccc(C4CC4)cc3)c2c1` [Example 24, (4-Dimethylamino-phenyl)-[4-(4-cyclopropyl-phenyl)-6-propargyloxy-quinazolin-2-yl]-methanone] displayed a melting point of 169 to 172 °C.

In the case of `C#CCOc1ccc2nc(C(=O)c3ccoc3)nc(-c3ccc(C(C)(C)C)cc3)c2c1` [Example 33, Furan-3-yl-[4-(4-tert.butyl-phenyl)-6-propargyloxy-quinazolin-2-yl]-methanone], the melting point amounted to 170 °C.

`C#CCOc1ccc2nc(C(=O)c3ccc(N(C)C)cc3)nc(-c3ccc(C(C)(C)C)cc3)c2c1` [Example 23, (4-Dimethylamino-phenyl)-[4-(4-tert.butyl-phenyl)-6-propargyloxy-quinazolin-2-yl]-methanone] registered a melting point of 150 to 152 °C.

In the case of `C#CCOc1ccc2nc(C(=O)c3cccn3C)nc(-c3ccc(C(C)C)cc3)c2c1` [Example 39, (1-Methyl-1H-pyrrol)-2-yl-[4-(4-isopropyl-phenyl)-6-propargyloxy-quinazolin-2-yl]-methanone], the melting point fell in the range of 126 to 128 °C.

The compound `C#CCOc1ccc2nc(C(=O)c3ccc(OCCCC)cc3)nc(-c3ccc(C(C)C)cc3)c2c1` [Example 31, (4-Butyloxy)-[4-(4-isopropyl-phenyl)-6-propargyloxy-quinazolin-2-yl]-methanone] came in with a melting point of 91 to 93 °C.

For `C#CCOc1ccc2nc(C(=O)c3cccs3)nc(-c3ccc(C(C)C)cc3)c2c1` [Example 35, Thiophen-2-yl-[4-(4-isopropyl-phenyl)-6-propargyloxy-quinazolin-2-yl]-methanone], the melting point is 113 to 117 °C.

Take `C#CCOc1ccc2nc(C(=O)c3ccc(SC)cc3)nc(-c3ccc(C(C)C)cc3)c2c1` [Example 18, (4-Methylthio-phenyl)-[4-(4-isopropyl-phenyl)-6-propargyloxy-quinazolin-2-yl]-methanone]: the melting point lay in the range of 161 to 164 °C.

Compound `C#CCOc1ccc2nc(C(=O)c3ccc(OC)c(OCC)c3)nc(-c3ccc(C(C)C)cc3)c2c1` [Example 28, (3-Ethoxy-4-methoxy-phenyl)-[4-(4-isopropyl-phenyl)-6-propargyloxy-quinazolin-2-yl]-methanone] came in with a melting point of 148 °C.

With `C#CCOc1ccc2nc(C(=O)c3ccc(CCC)cc3)nc(-c3ccc(C(C)C)cc3)c2c1` [Example 16a, (4-Propyl-phenyl)-[4-(4-isopropyl-phenyl)-6-propargyloxy-quinazolin-2-yl]-methanone], the melting point lay in the range of 140 to 142 °C.

Turning to `C#CCOc1ccc2nc(C(=O)c3ccc(O)cc3)nc(-c3ccc(C(C)C)cc3)c2c1` [Example 30, (4-Hydroxy)-[4-(4-isopropyl-phenyl)-6-propargyloxy-quinazolin-2-yl]-methanone], the melting point was in the range of 185 to 187 °C.

`C#CCOc1ccc2nc(C(=O)c3ccc(OC(C)(C)C)cc3)nc(-c3ccc(C(C)C)cc3)c2c1` [Example 29, (4-tert.Butyloxy-phenyl)-[4-(4-isopropyl-phenyl)-6-propargyloxy-quinazolin-2-yl]-methanone] displayed a melting point of 130 to 132 °C.

Consider `C#CCOc1ccc2nc(C(=O)c3ccc(F)cc3)nc(-c3ccc(C(C)(C)C)cc3)c2c1` [Example 10, (4-Fluoro-phenyl)-[4-(4-tert.butyl-phenyl)-6-propargyloxy-quinazolin-2-yl]-methanone], for which the melting point was in the range of 105 to 107 °C.

In turn, `C#CCOc1ccc2nc(C(=O)c3cccc(F)c3)nc(-c3ccc(C(C)C)cc3)c2c1` [Example 7, (3-Fluoro-phenyl)-[4-(4-isopropyl-phenyl)-6-propargyloxy-quinazolin-2-yl]-methanone] showed a melting point of 118 to 120 °C.

The compound `C#CCOc1ccc2nc(C(=O)c3ccc(OC)cc3)nc(-c3ccc(C(C)(C)C)cc3)c2c1` [Example 26, (4-Methoxy-phenyl)-[4-(4-tert.butyl-phenyl)-6-propargyloxy-quinazolin-2-yl]-methanone] gave a melting point of 150 to 152 °C.

Regarding `C#CCOc1ccc2nc(C(=O)c3ccco3)nc(-c3ccc(C(C)C)cc3)c2c1` [Example 32, Furan-2-yl-[4-(4-isopropyl-phenyl)-6-propargyloxy-quinazolin-2-yl]-methanone], the melting point was 150 to 151 °C.

`C#CCOc1ccc2nc(C(=O)c3ccc(C(C)C)cc3)nc(-c3ccc(C(C)C)cc3)c2c1` [Example 15, (4-Isopropyl-phenyl)-[4-(4-isopropyl-phenyl)-6-propargyloxy-quinazolin-2-yl]-methanone] yielded a melting point of 132 to 134 °C.

In turn, `C#CCOc1ccc2nc(C(=O)c3cc4ccccc4s3)nc(-c3ccc(C(C)C)cc3)c2c1` [Example 37, Benz[b]thiophen-2-yl-[4-(4-isopropyl-phenyl)-6-propargyloxy-quinazolin-2-yl]-methanone] displayed a melting point of 167 to 169 °C.

In the case of `C#CCOc1ccc2nc(C(=O)c3ccoc3)nc(-c3ccc(C(C)C)cc3)c2c1` [Example 34, Furan-3-yl-[4-(4-isopropyl-phenyl)-6-propargyloxy-quinazolin-2-yl]-methanone], the melting point was 133 °C.

Compound `C#CCOc1ccc2nc(C(=O)c3ccc(S(C)(=O)=O)cc3)nc(-c3ccc(C(C)C)cc3)c2c1` [Example 19, (4-Methansulfonyl-phenyl)-[4-(4-isopropyl-phenyl)-6-propargyloxy-quinazolin-2-yl]-methanone] returned a melting point of 181 to 184 °C.

For the compound `C#CCOc1ccc2nc(C(=O)c3ccc(OC)cc3)nc(-c3ccc(C4CC4)cc3)c2c1` [Example 27], the melting point lay in the range of 147 to 149 °C.

Compound `C#CCOc1ccc2nc(C(=O)c3ccc(C#N)cc3)nc(-c3ccc(C(C)C)cc3)c2c1` [Example 17, (4-Cyano-phenyl)-[4-(4-isopropyl-phenyl)-6-propargyloxy-quinazolin-2-yl]-methanone] gave a melting point of 130 to 132 °C.

In turn, `C#CCOc1ccc2nc(C(=O)c3ccc(C(=O)OCC)cc3)nc(-c3ccc(C(C)C)cc3)c2c1` [Example 25, 4-[4-(4-Isopropyl-phenyl)-6-propargyloxy-quinazoline-2-carbonyl]-benzoic acid ethyl ester] had a melting point of 132 to 134 °C.

`C#CCOc1ccc2nc(C(=O)c3ccc(N(C)C)cc3)nc(-c3ccc(C(C)C)cc3)c2c1` [Example 20, (4-Dimethylamino-phenyl)-[4-(4-isopropyl-phenyl)-6-propargyloxy-quinazolin-2-yl]-methanone] gave a melting point of 148 to 151 °C.

With `C#CCOc1ccc2nc(C(=O)c3ccc(Cl)cc3)nc(-c3ccc(C(C)C)cc3)c2c1` [Example 9, (4-Chloro-phenyl)-[4-(4-isopropyl-phenyl)-6-propargyloxy-quinazolin-2-yl]-methanone], the melting point was 108 to 110 °C.

In the case of `C#CCOc1ccc2nc(C(=O)c3ccc(OCC)cc3)nc(-c3ccc(C(C)C)cc3)c2c1` [Example 21, (4-Ethoxy-phenyl)-[4-(4-isopropyl-phenyl)-6-propargyloxy-quinazolin-2-yl]-methanone], the melting point was 117 to 119 °C.

The values above are taken from patent US20100166765A1, “BENZOQUINAZOLINE DERIVATIVES” (priority 2005, published 2010).
